The source of these data is publication PMC13575467, “Structural and functional characterisation of a reconstructed ancestral strigolactone receptor” (The Plant Journal, 2026).

In experiment [1] the target is T1, AtD14 (Arabidopsis thaliana, UniProt Q9SQR3).
T1 construct: gene D14; E. coli codon-optimised, 6xHis-SUMO fusion (pE-SUMO-Amp) from E. coli Rosetta, Ni-NTA, tag kept in assays
T1 sequence (Q9SQR3 1-267): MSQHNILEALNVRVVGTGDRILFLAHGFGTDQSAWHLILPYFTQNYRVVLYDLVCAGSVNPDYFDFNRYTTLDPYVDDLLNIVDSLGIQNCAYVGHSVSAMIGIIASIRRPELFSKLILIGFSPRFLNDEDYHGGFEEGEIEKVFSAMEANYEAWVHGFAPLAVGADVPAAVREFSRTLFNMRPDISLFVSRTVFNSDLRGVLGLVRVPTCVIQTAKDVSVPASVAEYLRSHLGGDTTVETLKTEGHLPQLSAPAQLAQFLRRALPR
Kind of experiment: differential scanning fluorimetry. The experiment is classed as binding. To be noted: Tm lowered (destabilisation); ligand 0-200 μM. A general note: Differential scanning fluorimetry follows unfolding on heating by fluorescence.

In experiment [2] the target is T2, ancD14 (ancestral D14) (synthetic construct, UniProt Z9A6V6BWX9).
T2 sequence (Z9A6V6BWX9 1-265): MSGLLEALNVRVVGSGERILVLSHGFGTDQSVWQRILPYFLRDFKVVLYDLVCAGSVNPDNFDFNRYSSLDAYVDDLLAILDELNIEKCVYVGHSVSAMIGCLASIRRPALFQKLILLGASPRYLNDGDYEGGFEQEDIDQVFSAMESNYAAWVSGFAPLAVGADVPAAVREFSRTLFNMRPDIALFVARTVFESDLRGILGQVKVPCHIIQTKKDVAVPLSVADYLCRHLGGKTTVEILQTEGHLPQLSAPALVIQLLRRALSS
Kind of experiment: differential scanning fluorimetry. To be noted: Tm lowered (destabilisation); ligand 0-200 μM. The experiment is classed as binding.

Experiment [3] has as its target T1, AtD14. Kind of experiment: competition of dYLG hydrolysis. To be noted: 5 μM dYLG, 0-50 μM competitor, 100 ng protein. The experiment is classed as biochemical.
Experiment [4] concerns the target T2, ancD14 (ancestral D14). Nature of the experiment: differential scanning fluorimetry. The experiment is classed as binding. To be noted: Tm lowered (destabilisation); ligand 0-200 μM. The source holds these as a separate data set.
Experiment [5] addresses T2, ancD14 (ancestral D14). Nature of the experiment: competition of dYLG hydrolysis. The experiment is classed as biochemical. To be noted: 5 μM dYLG, 0-50 μM competitor, 100 ng protein.
In experiment [6] the target is T1, AtD14. Nature of the experiment: differential scanning fluorimetry. The experiment is classed as binding. To be noted: Tm lowered (destabilisation); ligand 0-200 μM. This is another data set of the same source.

Take `CC1=C[C@H](O/C=C2/C(=O)O[C@@H]3c4ccccc4C[C@H]23)OC1=O` [GR24^5DS]: the “dTm (decrease in melting temperature)” value at AtD14 [1] stood at 6.1 °C; at ancD14 (ancestral D14) [2] it was 6.6 °C. Moreover, on AtD14 [3], the IC50 result is on record as “GR24^5DS was a very effective competitor for AtD14”.

For the molecule `CC1=C[C@@H](O/C=C2/C(=O)O[C@H]3c4ccccc4C[C@@H]23)OC1=O` [GR24^ent-5DS], the dTm entry on ancD14 (ancestral D14) [4] was “albeit with a comparatively muted response to GR24^ ent‐5DS”; on AtD14 [6], “AtD14 was thermally destabilised by both GR24^5DS and GR24^ ent‐5DS”. For the same molecule, the IC50 entry is recorded as “GR24^ ent‐5DS also competed well with ancD14” at ancD14 (ancestral D14) [5] and “AtD14 activity was inhibited by all four enantiomers” on AtD14 [3].

Regarding `O=C1C=C[C@@H](O/C=C2/C(=O)O[C@H]3c4ccccc4C[C@@H]23)O1` [dGR24^ent-5DS], at AtD14 [3], the IC50 result is reported as “AtD14 activity was inhibited by all four enantiomers”.
